Experimental findings from patent publication US10308644B2, “Heterocyclic compounds as immunomodulators” (Incyte Corporation, priority 2016, dated 2019) are described below.

The assay deals with PD-1/PD-L1 (Homo sapiens (Human), UniProt Q9NZQ7). Briefly: PD-1/PD-L1 Homogeneous Time-Resolved Fluorescence (HTRF) Binding Assay. The conditions noted are these: recombinant human PD-1 (3 nM) and PD-L1 (10 nM), 25° C., PBS pH 7.4. The procedure, abridged:
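Fc-tagged human PD-1 (25-167, 3 nM) and His-tagged PD-L1 (19-238, 10 nM) preincubated with inhibitor 40 min in PBS pH 7.4, 0.05% Tween-20, 0.1% BSA, 1% DMSO, 25 °C. Binding detected by HTRF (Eu anti-IgG/APC anti-His, 665/620 nm) after 60 min; IC50 from percent control activity.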

A word on the IC50: it is the point on the concentration scale where inhibition reaches its midpoint.

Structures are written as SMILES.

Sequence of PD-1/PD-L1 (Q9NZQ7 19-238): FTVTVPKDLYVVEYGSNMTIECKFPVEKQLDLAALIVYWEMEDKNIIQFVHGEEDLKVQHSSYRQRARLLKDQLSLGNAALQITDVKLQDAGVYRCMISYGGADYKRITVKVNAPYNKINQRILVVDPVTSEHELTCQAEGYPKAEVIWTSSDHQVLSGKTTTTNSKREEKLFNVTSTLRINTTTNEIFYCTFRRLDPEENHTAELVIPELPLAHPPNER

In the case of `CCN1CCc2cn(-c3cccc(-c4cccc(-c5nc6cc(CN7CC[C@@H](C(=O)O)C7)cc(C#N)c6o5)c4C)c3Cl)nc2C1` [Example 58, (R)-1-((2-(2′-chloro-3′-(6-ethyl-4,5,6,7-tetrahydro-2H-pyrazolo[3,4-c]pyridin-2-yl)-2-methylbiphenyl-3-yl)-7-cyanobenzo[d]oxazol-5-yl)methyl)pyrrolidine-3-carboxylic acid], the IC50 is no more than 10 nM.

Turning to `Cc1c(-c2nc3cc(CN4CC[C@@H](C(=O)O)C4)cc(Cl)c3o2)cccc1-c1cccc(-c2nc3c(s2)CN(C(C)C)CC3)c1C` [Example 59, (R)-1-((7-chloro-2-(3′-(5-isopropyl-4,5,6,7-tetrahydrothiazolo[5,4-c]pyridin-2-yl)-2,2′-dimethyl-[1,1′-biphenyl]-3-yl)benzo[d]oxazol-5-yl)methyl)pyrrolidine-3-carboxylic acid], the IC50 was no more than 10 nM.

On to `CCN1CCc2nc(-c3cccc(-c4cccc(-c5nc6cc(CN7CC[C@@H](C(=O)O)C7)cc(Cl)c6o5)c4C)c3C)sc2C1` [Example 60, (R)-1-((7-chloro-2-(3′-(5-ethyl-4,5,6,7-tetrahydrothiazolo[5,4-c]pyridin-2-yl)-2,2′-dimethyl-[1,1′-biphenyl]-3-yl)benzo[d]oxazol-5-yl)methyl)pyrrolidine-3-carboxylic acid], for which the IC50 is no more than 10 nM.

With `Cc1c(-c2nc3cc(CN4CC[C@@H](C(=O)O)C4)cc(Cl)c3o2)cccc1-c1cccc(-c2nc3c(s2)CN(CCO)CC3)c1C` [Example 61, (R)-1-((7-chloro-2-(3′-(5-(2-hydroxyethyl)-4,5,6,7-tetrahydrothiazolo[5,4-c]pyridin-2-yl)-2,2′-dimethyl-[1,1′-biphenyl]-3-yl)benzo[d]oxazol-5-yl)methyl)pyrrolidine-3-carboxylic acid], the half-maximal inhibitory concentration (IC50) is no more than 10 nM.

Take `Cc1c(-c2nc3cc(CN4CC[C@@H](C(=O)O)C4)cc(Cl)c3o2)cccc1-c1cccc(-c2nc3c(s2)CN(C(C)CO)CC3)c1C` (stereo partly drawn) [Example 62, (3R)-1-((7-chloro-2-(3′-(5-(1-hydroxypropan-2-yl)-4,5,6,7-tetrahydrothiazolo[5,4-c]pyridin-2-yl)-2,2′-dimethyl-[1,1′-biphenyl]-3-yl)benzo[d]oxazol-5-yl)methyl)pyrrolidine-3-carboxylic acid]: the IC50 was no more than 10 nM.

With `Cc1c(-c2nc3cc(CN4CC[C@@H](C(=O)O)C4)cc(C#N)c3o2)cccc1-c1cccc(-c2nc3c(s2)CN(C(C)C)CC3)c1C` [Example 63, (R)-1-((7-cyano-2-(3′-(5-isopropyl-4,5,6,7-tetrahydrothiazolo[5,4-c]pyridin-2-yl)-2,2′-dimethyl-[1,1′-biphenyl]-3-yl)benzo[d]oxazol-5-yl)methyl)pyrrolidine-3-carboxylic acid], the IC50 is no more than 10 nM.

For the molecule `Cc1c(-c2nc3cc(CN4CC[C@@H](C(=O)O)C4)cc(C#N)c3o2)cccc1-c1cccc(-c2nc3c(s2)CN(CC2CC2)CC3)c1C` [Example 64, (R)-1-((7-cyano-2-(3′-(5-(cyclopropylmethyl)-4,5,6,7-tetrahydrothiazolo[5,4-c]pyridin-2-yl)-2,2′-dimethyl-[1,1′-biphenyl]-3-yl)benzo[d]oxazol-5-yl)methyl)pyrrolidine-3-carboxylic acid], the IC50 is no more than 10 nM.

Regarding `Cc1c(-c2nc3cc(CN4CC[C@@H](C(=O)O)C4)cc(C#N)c3o2)cccc1-c1cccc(-c2nc3c(s2)CN(CCO)CC3)c1C` [Example 65, (R)-1-((7-cyano-2-(3′-(5-(2-hydroxyethyl)-4,5,6,7-tetrahydrothiazolo[5,4-c]pyridin-2-yl)-2,2′-dimethyl-[1,1′-biphenyl]-3-yl)benzo[d]oxazol-5-yl)methyl)pyrrolidine-3-carboxylic acid], the IC50 was no more than 10 nM.

`Cc1c(-c2nc3cc(CN4CC[C@@H](C(=O)O)C4)cc(C#N)c3o2)cccc1-c1cccc(-c2nc3c(s2)CN(C(C)CO)CC3)c1C` (stereo partly drawn) [Example 66, (3R)-1-((7-cyano-2-(3′-(5-(1-hydroxypropan-2-yl)-4,5,6,7-tetrahydrothiazolo[5,4-c]pyridin-2-yl)-2,2′-dimethyl-[1,1′-biphenyl]-3-yl)benzo[d]oxazol-5-yl)methyl)pyrrolidine-3-carboxylic acid]: the IC50 is no more than 10 nM.

For the molecule `Cc1c(-c2nc3cc(CN4CC[C@H](C(=O)O)C4)cc(C#N)c3o2)cccc1-c1cccc(-c2nc3c(s2)CN(CCO)CC3)c1C` [Example 67, (S)-1-((7-cyano-2-(3′-(5-(2-hydroxyethyl)-4,5,6,7-tetrahydrothiazolo[5,4-c]pyridin-2-yl)-2,2′-dimethyl-[1,1′-biphenyl]-3-yl)benzo[d]oxazol-5-yl)methyl)pyrrolidine-3-carboxylic acid], the IC50 is no more than 10 nM.

For the molecule `Cc1c(-c2nc3cc(CN4CC(C(=O)O)C4)cc(C#N)c3o2)cccc1-c1cccc(-c2nc3c(s2)CN(CCO)CC3)c1C` [Example 68, 1-((7-cyano-2-(3′-(5-(2-hydroxyethyl)-4,5,6,7-tetrahydrothiazolo[5,4-c]pyridin-2-yl)-2,2′-dimethyl-[1,1′-biphenyl]-3-yl)benzo[d]oxazol-5-yl)methyl)azetidine-3-carboxylic acid], the 50% inhibitory concentration (IC50) was no more than 10 nM.

Consider `Cc1c(-c2nc3c(s2)CNCC3)cccc1-c1cccc(-c2nc3cc(CN4CC[C@@H](C(=O)O)C4)cc(C#N)c3o2)c1Cl` [Example 69, (R)-1-((2-(2-chloro-2′-methyl-3′-(4,5,6,7-tetrahydrothiazolo[5,4-c]pyridin-2-yl)-[1,1′-biphenyl]-3-yl)-7-cyanobenzo[d]oxazol-5-yl)methyl)pyrrolidine-3-carboxylic acid], for which the IC50 was no more than 10 nM.

Take `Cc1c(-c2nc3cc(CN4CC[C@@H](C(=O)O)C4)cc(Cl)c3o2)cccc1-c1cccc(-c2nc3c(s2)CNCC3)c1C` [Example 70, (R)-1-((7-chloro-2-(2,2′-dimethyl-3′-(4,5,6,7-tetrahydrothiazolo[5,4-c]pyridin-2-yl)-[1,1′-biphenyl]-3-yl)benzo[d]oxazol-5-yl)methyl)pyrrolidine-3-carboxylic acid]: the IC50 is no more than 10 nM.

As to `Cc1c(-c2nc3cc(CN4CC[C@@H](C(=O)O)C4)cc(Cl)c3o2)cccc1-c1cccc(-c2nc3c(s2)CN(C)CC3)c1C` [Example 71, (R)-1-((7-chloro-2-(2,2′-dimethyl-3′-(5-methyl-4,5,6,7-tetrahydrothiazolo[5,4-c]pyridin-2-yl)-[1,1′-biphenyl]-3-yl)benzo[d]oxazol-5-yl)methyl)pyrrolidine-3-carboxylic acid], the IC50 was no more than 10 nM.

Take `Cc1c(-c2nc3cc(CN4CC[C@@H](C(=O)O)C4)cc(C#N)c3o2)cccc1-c1cccc(-c2nc3c(s2)CNCC3)c1C` [Example 72, (R)-1-((7-cyano-2-(2,2′-dimethyl-3′-(4,5,6,7-tetrahydrothiazolo[5,4-c]pyridin-2-yl)biphenyl-3-yl)benzo[d]oxazol-5-yl)methyl)pyrrolidine-3-carboxylic acid]: the IC50 was no more than 10 nM.

In the case of `Cc1c(-c2nc3cc(CN4CC[C@@H](C(=O)O)C4)cc(C#N)c3o2)cccc1-c1cccc(-c2nc3c(s2)CN(C)CC3)c1C` [Example 73], the concentration for half-maximal inhibition (IC50) is no more than 10 nM.

As for `Cc1c(-c2nc3c(o2)CCNC3)cccc1-c1cccc(-c2nc3cc(CN4CC[C@@H](C(=O)O)C4)cc(Cl)c3o2)c1C` [Example 74, (R)-1-((7-chloro-2-(2,2′-dimethyl-3′-(4,5,6,7-tetrahydrooxazolo[4,5-c]pyridin-2-yl)-[1,1′-biphenyl]-3-yl)benzo[d]oxazol-5-yl)methyl)pyrrolidine-3-carboxylic acid], the IC50 was no more than 10 nM.

Take `Cc1c(-c2nc3c(o2)CCNC3)cccc1-c1cccc(-c2nc3cc(CN4CC[C@@H](C(=O)O)C4)cc(C#N)c3o2)c1C` [Example 75, (R)-1-((7-cyano-2-(2,2′-dimethyl-3′-(4,5,6,7-tetrahydrooxazolo[4,5-c]pyridin-2-yl)-[1,1′-biphenyl]-3-yl)benzo[d]oxazol-5-yl)methyl)pyrrolidine-3-carboxylic acid]: the concentration for half-maximal inhibition (IC50) is no more than 10 nM.

On to `Cc1c(-c2nc3c(o2)CCNC3)cccc1-c1cccc(-c2nc3cc(CN4CC[C@H](C(=O)O)C4)cc(Cl)c3o2)c1C` [Example 76, (S)-1-((7-chloro-2-(2,2′-dimethyl-3′-(4,5,6,7-tetrahydrooxazolo[4,5-c]pyridin-2-yl)-[1,1′-biphenyl]-3-yl)benzo[d]oxazol-5-yl)methyl)pyrrolidine-3-carboxylic acid], for which the concentration for half-maximal inhibition (IC50) was no more than 10 nM.

`Cc1c(-c2nc3c(o2)CCNC3)cccc1-c1cccc(-c2nc3cc(CN4CC(C(=O)O)C4)cc(Cl)c3o2)c1C` [Example 77, 1-((7-chloro-2-(2,2′-dimethyl-3′-(4,5,6,7-tetrahydrooxazolo[4,5-c]pyridin-2-yl)-[1,1′-biphenyl]-3-yl)benzo[d]oxazol-5-yl)methyl)azetidine-3-carboxylic acid]: the IC50 is no more than 10 nM.

With `Cc1c(-c2nc3c(o2)CNCC3)cccc1-c1cccc(-c2nc3cc(CN4CC[C@@H](C(=O)O)C4)cc(Cl)c3o2)c1C` [Example 78, (R)-1-((7-chloro-2-(2,2′-dimethyl-3′-(4,5,6,7-tetrahydrooxazolo[5,4-c]pyridin-2-yl)-[1,1′-biphenyl]-3-yl)benzo[d]oxazol-5-yl)methyl)pyrrolidine-3-carboxylic acid], the IC50 is no more than 10 nM.

In the case of `Cc1c(-c2nc3cc(CN4CC[C@@H](C(=O)O)C4)cc(C#N)c3o2)cccc1-c1cccc(-c2nc3c(s2)C(C)(C)N(C)CC3)c1C` [Example 79, (R)-1-((7-cyano-2-(2,2′-dimethyl-3′-(4,4,5-trimethyl-4,5,6,7-tetrahydrothiazolo[5,4-c]pyridin-2-yl)-[1,1′-biphenyl]-3-yl)benzo[d]oxazol-5-yl)methyl)pyrrolidine-3-carboxylic acid], the IC50 was no more than 10 nM.

In the case of `Cc1c(NC(=O)c2nc3c(n2C)CCN(C)C3)cccc1-c1cccc(-c2nc3cc(CN4CC[C@@H](C(=O)O)C4)cc(C#N)c3o2)c1C` [Example 80, (R)-1-((7-cyano-2-(3′-(1,5-dimethyl-4,5,6,7-tetrahydro-1H-imidazo[4,5-c]pyridine-2-carboxamido)-2,2′-dimethylbiphenyl-3-yl)benzo[d]oxazol-5-yl)methyl)pyrrolidine-3-carboxylic acid], the IC50 was no more than 10 nM.
